The source of these data is ChEMBL document CHEMBL4350983, “Combining structure- and property-based optimization to identify selective FLT3-ITD inhibitors with good antitumor efficacy in AML cell inoculated mouse xenograft model” (Eur J Med Chem, 2019).

What is called half-life is the time in which the quantity being followed falls by half. High values mean slow loss, low ones fast loss. As a reminder, the Cmax is the highest concentration seen after dosing. The term Tmax denotes the time at which the peak concentration occurs. As usually defined, the AUC(0-t) is exposure summed from dosing to a finite time, without extrapolation to infinity. The low end stands for less exposure, the high end for more exposure. As usually defined, the AUC(0-inf) is the area under the concentration-time curve extrapolated to infinity. A low value points to less exposure. A word on the MRT last: it is the average time that molecules of a dose stay in the body. Broadly, the bioavailability is the share of a dose that reaches the circulation, judged against a reference dose that is usually intravenous. Higher therefore signals good availability.

Structures are written as SMILES.

A short description of data set [1]: Half-life in Sprague-Dawley rat at 1 mg/kg, iv measured up to 24 hrs by LC-MS/MS analysis. The class given is ADME, organism-based. The settings on record: in vivo.
The nature of data set [2]: Half-life in Sprague-Dawley rat at 5 mg/kg, po measured up to 24 hrs by LC-MS/MS analysis. Type of data set: ADME, organism-based. The following applies: in vivo.
Data set [3] is described as follows: Cmax in Sprague-Dawley rat at 1 mg/kg, iv measured up to 24 hrs by LC-MS/MS analysis. Set-up: dose 1 mg/kg, route intravenous. The settings on record: in vivo. Type of data set: ADME, organism-based.
Data set [4] is described as follows: Cmax in Sprague-Dawley rat at 5 mg/kg, po measured up to 24 hrs by LC-MS/MS analysis. The settings on record: in vivo. The class given is ADME, organism-based. Also on record: dose 5 mg/kg, route oral.
Data set [5] in a line: Tmax in Sprague-Dawley rat at 5 mg/kg, po measured up to 24 hrs by LC-MS/MS analysis. Type of data set: ADME, organism-based. The following applies: in vivo.
Data set [6] in a line: AUCt in Sprague-Dawley rat at 1 mg/kg, iv measured up to 24 hrs by LC-MS/MS analysis. The settings on record: in vivo. Also on record: dose 1 mg/kg, time < 24 hr, route intravenous. The class given is ADME, organism-based.
The nature of data set [7]: AUCt in Sprague-Dawley rat at 5 mg/kg, po measured up to 24 hrs by LC-MS/MS analysis. Type of data set: ADME, organism-based. Set-up: time < 24 hr, dose 5 mg/kg, route oral. The settings on record: in vivo.
Data set [8] is described as follows: AUC (0 to infinity) in Sprague-Dawley rat at 5 mg/kg, po measured up to 24 hrs by LC-MS/MS analysis. The class given is ADME, organism-based. Set-up: dose 5 mg/kg, route oral, time infinity. The following applies: in vivo.
Data set [9] can be described thus: AUC (0 to infinity) in Sprague-Dawley rat at 1 mg/kg, iv measured up to 24 hrs by LC-MS/MS analysis. The class given is ADME, organism-based. Also on record: dose 1 mg/kg, time infinity, route intravenous. The following applies: in vivo.
A short description of data set [10]: Mean residence time (0 to t) in Sprague-Dawley rat at 1 mg/kg, iv measured up to 24 hrs by LC-MS/MS analysis. The class given is ADME, organism-based. The following applies: in vivo.
Data set [11] can be described thus: Mean residence time (0 to t) in Sprague-Dawley rat at 5 mg/kg, po measured up to 24 hrs by LC-MS/MS analysis. The class given is ADME, organism-based. The following applies: in vivo.
A short description of data set [12]: Apparent volume of distribution in Sprague-Dawley rat at 1 mg/kg, iv measured up to 24 hrs by LC-MS/MS analysis. Type of data set: ADME, organism-based. The following applies: in vivo, read-out: Vz.
Data set [13] in a line: Apparent volume of distribution in Sprague-Dawley rat at 5 mg/kg, po measured up to 24 hrs by LC-MS/MS analysis. The class given is ADME, organism-based. The settings on record: in vivo.
Data set [14] can be described thus: Apparent clearance in Sprague-Dawley rat at 1 mg/kg, iv measured up to 24 hrs by LC-MS/MS analysis. The settings on record: in vivo, read-out: CL(app) (converted). Type of data set: ADME, organism-based.
Data set [15] is described as follows: Apparent clearance in Sprague-Dawley rat at 5 mg/kg, po measured up to 24 hrs by LC-MS/MS analysis. The following applies: in vivo, read-out: CL(app) (converted). The class given is ADME, organism-based.
Data set [16] in a line: Oral bioavailability in Sprague-Dawley rat at 5 mg/kg measured up to 24 hrs by LC-MS/MS analysis. Type of data set: ADME, organism-based. The following applies: in vivo.
For data set [17] the following is noted: human, microsomes, 0.25 h, 1 µM.
The conditions of data set [18]: rat, microsomes, 0.25 h, 1 µM.
Data set [19] can be described thus: in vitro. The settings on record: human, liver microsomes.
The nature of data set [20]: in vitro. The following applies: rat, liver microsomes. A general note: Liver microsomes are vesicles of endoplasmic reticulum, rich in cytochrome P450 enzymes.

In the case of `CN1CCC(Nc2ccc(C(=O)Nc3cc(-c4ccc5c(c4)OCO5)n[nH]3)cc2)CC1`, the half-life in data set [1] is 1.96 h; in data set [2], 3.07 h. Also, the Cmax in data set [3] was 0.205 µg/mL; in [4] it was 0.027 µg/mL. Further, the time to peak (Tmax) in [5] is 2.83 h. For the same molecule, the AUC(0-t) at 24 h was found to be 0.152 µg·h/mL in data set [6] and 0.173 µg·h/mL in [7]. Besides, the total exposure AUC(0-inf) stood at 0.194 µg·h/mL in data set [8] and 0.161 µg·h/mL in data set [9]. For the same molecule, the MRT last at 24 h was 2.75 h in data set [10] and 5.9 h in data set [11]. In [12], the Vd stood at 18.2 L/kg. Further, the Vz in [13] amounted to 105.05 L/kg. The clearance in data set [14] was 6.63 L/h/kg. Moreover, the CL/F in [15] was 26.7 L/h/kg. This molecule also had a bioavailability in [16] of 22.8%. For the same molecule, the CLH was 0.000708 L/h/kg in data set [17] and 0.0101 L/h/kg in data set [18]. Further, the values for the half-life at 0.25 h, 1 µM in [19] and in [20] were 1.95 h and 8.27 min, respectively.
